# The source made the active and inactive calls. The calls are words filed in the database; no cut-off is given here.
# Columns and labels:
# [1] = test system: MDA-MB-231; assay: Inhibition of cell migration in human MDA-MB-231 cells assessed as reduction in migration at 1 to 4 uM measured after 24 hrs by transwell migration assay; assay type: functional, cell-based; settings: dose 1-4 µM
# [2] = test system: Quadruplex DNA; assay: Stabilization of c-MYC G4 quadruplex DNA (unknown origin) assessed as change in temperature incubated for 2 hrs in presence of telomer by FRET assay; assay type: nucleic-acid assay
# [3] = test system: Quadruplex DNA; assay: Stabilization of c-MYC G4 quadruplex DNA HRAS (unknown origin) assessed as change in temperature at which 50% protein unfold by circular dichroism melting assay
# [4] = test system: HEK293; assay: Downregulation of c-MYC expression in human HEK293 cells transfected with psiCHECK2 luciferase plasmid at 1 to 4 uM incubated for 24 hrs by dual luciferase reporter assay; assay type: functional, cell-based; settings: dose 1-4 µM
# [5] = test system: MDA-MB-231; assay: Antitumor activity against human MDA-MB-231 cells xenografted in BALB/c nude mouse assessed as reduction in tumor weight at 5 mg/kg, ip administered every other day for 20 days and measured every 4 days; assay type: functional, organism-based; settings: time 20.0 day
# [6] = Toxicity in BALB/c mouse xenografted with human MDA-MB-231 cells assessed as discomfort at 5 mg/kg, ip administered every other day for 20 days and measured every 4 days; assay type: organism-based; settings: in vivo, 480 h, time 20 day
# [7] = test system: MDA-MB-231; assay: Cytotoxicity against human MDA-MB-231 cells assessed as reduction in cell viability by CCK8 assay; assay type: functional, cell-based
# [8] = test system: MDA-MB-231; assay: Cytotoxicity against human MDA-MB-231 cells assessed as inhibition of cell growth at 0 to 20 uM incubated for 72 hrs by CCK-8 assay; assay type: functional, cell-based; settings: MDA-MB-231, 72 h
# [9] = test system: Quadruplex DNA; assay: Stabilization of c-MYC G4 quadruplex DNA (unknown origin) assessed as change in temperature incubated for 2 hrs in presence of HRAS by FRET assay; assay type: nucleic-acid assay
# [10] = test system: MDA-MB-231; assay: Downregulation of c-MYC protein expression in human MDA-MB-231 cells at 1 to 4 uM measured after 24 hrs by Western blot analysis; assay type: functional, cell-based; settings: dose 1-4 µM
# [11] = test system: MDA-MB-231; assay: Induction of apoptosis in human MDA-MB-231 cells assessed as caspase-9 cleavage at 1 to 4 uM incubated for 24 hrs by Western blot analysis; assay type: functional, cell-based; settings: dose 1-4 µM
# [12] = Cytotoxicity against human MCF-10A cells assessed as reduction in cell viability by CCK8 assay; assay type: toxicity, cell-based
# [13] = test system: MDA-MB-231; assay: Induction of DNA damage in human MDA-MB-231 cells assessed as increase in gamma-H2AX fluorescence intensity at 4 uM measured after 24 hrs by immunofluorescence analysis; assay type: functional, cell-based
# [14] = test system: MDA-MB-231; assay: Induction of cell cycle arrest in human MDA-MB-231 cells assessed as accumulation of cells at S phase at 1 uM incubated for 24 hrs by propidium iodide staining based flow cytometry analysis (reference value: 15.50%); assay type: functional
# [15] = Cytotoxicity against human MCF-10A cells assessed as inhibition of cell proliferation by CCK-8 assay; assay type: toxicity, cell-based
# [16] = test system: MDA-MB-231; assay: Induction of cell cycle arrest in human MDA-MB-231 cells assessed as accumulation of cells at G2/M phase at 4 uM incubated for 24 hrs by propidium iodide staining based flow cytometry analysis (reference value: 17.58%); assay type: functional
# [17] = test system: MDA-MB-231; assay: Antitumor activity against human MDA-MB-231 cells xenografted in BALB/c mouse assessed as reduction in c-MYC expression at 5 mg/kg, ip administered every other day for 20 days and measured every 4 days by immunohistochemistry analysis; assay type: functional, organism-based; settings: time 20.0 day
# [18] = test system: Quadruplex DNA; assay: Stabilization of c-MYC G4 quadruplex DNA (unknown origin) assessed as change in temperature incubated for 2 hrs in presence of KRAS by FRET assay; assay type: nucleic-acid assay
# [19] = test system: MDA-MB-231; assay: Induction of autophagy in human MDA-MB-231 cells assessed as conversion of LC3B-I to LC3B-II at 1 to 4 uM incubated for 24 hrs by Western blot analysis; assay type: functional, cell-based; settings: dose 1-4 µM
# [20] = Toxicity in BALB/c mouse xenografted with human MDA-MB-231 cells assessed as effect on lung at 5 mg/kg, ip administered every other day for 20 days and measured every 4 days; assay type: organism-based; settings: in vivo, 480 h, time 20 day
# [21] = test system: MDA-MB-231; assay: Induction of cell cycle arrest in human MDA-MB-231 cells assessed as downregulation of Cdc2 expression at 1 to 4 uM incubated for 24 hrs by Western blot analysis; assay type: functional, cell-based; settings: dose 1-4 µM
# [22] = test system: MDA-MB-231; assay: Induction of autophagy in human MDA-MB-231 cells assessed as increase in fluorescence intensity of LC3B in cytoplasm at 4 uM measured after 24 hrs by immunofluorescence based analysis; assay type: functional, cell-based
# [23] = test system: MDA-MB-231; assay: Cytotoxicity against human MDA-MB-231 cells assessed as inhibition of cell growth at 0 to 20 uM incubated for 24 hrs by CCK-8 assay; assay type: functional, cell-based; settings: MDA-MB-231, 24 h
# [24] = test system: MDA-MB-231; assay: Induction of autophagy in human MDA-MB-231 cells assessed as aggregation of p62 protein expression level at 1 to 4 uM incubated for 24 hrs by Western blot analysis; assay type: functional, cell-based; settings: dose 1-4 µM
# [25] = Toxicity in BALB/c mouse xenografted with human MDA-MB-231 cells assessed as pain at 5 mg/kg, ip administered every other day for 20 days and measured every 4 days; assay type: organism-based; settings: in vivo, 480 h, time 20 day
# [26] = test system: MDA-MB-231; assay: Upregulation of phosphorylated ATM in human MDA-MB-231 cells at 1 to 4 uM measured after 24 hrs by Western blot analysis; assay type: functional, cell-based; settings: dose 1-4 µM
# [27] = Toxicity in BALB/c mouse xenografted with human MDA-MB-231 cells assessed as effect on kidney at 5 mg/kg, ip administered every other day for 20 days and measured every 4 days; assay type: organism-based; settings: in vivo, 480 h, time 20 day
# [28] = target: Quadruplex DNA; assay: Binding affinity to c-MYC G4 quadraplex DNA (unknown origin) assessed as dissociation constant by fluorescence titration based analysis; assay type: nucleic-acid assay
# [29] = test system: MDA-MB-231; assay: Induction of apoptosis in human MDA-MB-231 cells assessed as decrease in necrotic cells at 1 to 4 uM incubated for 24 hrs by Annexin-V FITC/PI double staining based flow cytometric analysis; assay type: functional, cell-based; settings: dose 1-4 µM
# [30] = test system: Quadruplex DNA; assay: Stabilization of c-Myc G4 quadruplex DNA (unknown origin) assessed as temperature at which 50% protein unfold by circular dichroism melting assay; assay type: nucleic-acid assay
# [31] = test system: MDA-MB-231; assay: Induction of cell cycle arrest in human MDA-MB-231 cells assessed as accumulation of cells at sub-G1 phase at 4 uM incubated for 24 hrs by propidium iodide staining based flow cytometry analysis (reference value: 0.57%); assay type: functional
# [32] = test system: MDA-MB-231; assay: Induction of cell cycle arrest in human MDA-MB-231 cells assessed as accumulation of cells at G0/G1 phase at 4 uM incubated for 24 hrs by propidium iodide staining based flow cytometry analysis (reference value: 66.35%); assay type: functional
smiles,measurement,setting,value
CN1CCN(c2ccc(-c3nc(-c4ccc(-c5ccc(C(F)(F)F)cc5)cc4)[nH]c3-c3ccc(N4CCN(C)CC4)cc3)cc2)CC1,inhibition,[1],Active
same,Activity,[2],Active
same,ΔTm,[3],7.1 °C
same,Activity,[4],Active
same,Activity,[5],Active
same,Activity,[6],Non-Toxic
same,IC50,[7],1.84 µM
same,IC50,[8],0.66 µM
same,Activity,[9],Active
same,Activity,[10],Active
same,Activity,[11],Active
same,IC50,[12],8.77 µM
same,Activity,[13],Active
same,Activity,[14],11.14%
same,IC50,[15],8.7 µM
same,Activity,[16],30.7%
same,Activity,[17],Active
same,Activity,[18],Active
same,Activity,[19],Active
same,Activity,[20],Non-Toxic
same,Activity,[21],Active
same,Activity,[22],Active
same,IC50,[23],1.84 µM
same,Activity,[24],Active
same,Activity,[25],Non-Toxic
same,Activity,[26],Active
same,Activity,[27],Non-Toxic
same,Kd,[28],2.7 µM
same,Activity,[29],inactive
same,T,[30],34.6 °C
same,Activity,[31],44.98%
same,Activity,[32],18.23%
